Data set [1] has as its target T1, PspE (fraction PspE2) (Escherichia coli, UniProt P23857).
T1 construct: 85 residues, 9428 Da; untagged; overexpressed from pHC4.1 (pT7-7) in E. coli BL21(DE3), freeze-thaw extract, SP cation exchange; partly persulfide/sulfonate modified at single cysteine
T1 sequence (P23857 20-104): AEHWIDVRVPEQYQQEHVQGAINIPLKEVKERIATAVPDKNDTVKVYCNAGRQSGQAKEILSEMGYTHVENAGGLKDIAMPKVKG
Nature of the data set: chemical inactivation by cysteine reagent. It is filed as biochemical. The following applies: covalent; active-site cysteine; fraction PspE1 more tolerant than PspE2; data not shown.

Data set [2] deals with T1, PspE (fraction PspE2). Nature of the data set: rhodanese assay. The data set is classed as biochemical. The following applies: Tris-acetate pH 8.6; for % inhibition at 0.25 M: 250000 µM, anion inhibition.
Substrate in data set [3]: O=S(O)(O)=S
Nature of the data set: purified protein. The data set is classed as biochemical, Escherichia coli. Particulars: pH 8.6; 25.0 °C.

Substrate in data set [4]: OC(CS)C(O)CS
Nature of the data set: purified protein. The data set is classed as biochemical, Escherichia coli. Particulars: sulfur acceptor, 4 mM or 10 mM thiosulfate, Tris-acetate pH 8.6, PspE fraction not stated.

Counter-ions that a name gives are not always drawn.

For `O=C(O)c1cc(SSc2ccc([N+](=O)[O-])c(C(=O)O)c2)ccc1[N+](=O)[O-]` [5,5’-dithio-bis(2-nitrobenzoic acid)], in data set [1], the “chemical inactivation by cysteine reagent” value is on record as “PspE1 was much more tolerant to chemical inactivation by the cysteine-modifying reagent”.
Take `O=P(O)(O)O` [sodium phosphate]: the “% inhibition at 0.25 M” value in data set [2] is listed as ~ 65%.
Same read-out and setting: next, `O=S(=O)(O)O` [sodium sulfate]: ~ 50%.
As for `O=S(O)O` [sodium sulfite], the “% inhibition at 1 mM” value in data set [2] (rhodanese product as inhibitor, data not shown) is on record as more than 50%.

B1: PspE (fraction PspE2) (Escherichia coli K-12) (protein)
chain: T1 sequence (P23857 20-104)
notes: 85 residues, 9428 Da; untagged; overexpressed from pHC4.1 (pT7-7) in E. coli BL21(DE3), freeze-thaw extract, SP cation exchange; partly persulfide/sulfonate modified at single cysteine
With B1, in data set [3], the Km was 2.7 mM and the kcat amounted to 64 s⁻¹. Besides, the Km in data set [4] stood at 10 mM.

The values are drawn from PMC2593051, “Biochemical and Genetic Characterization of PspE and GlpE, Two Single-domain Sulfurtransferases of Escherichia coli” (The Open Microbiology Journal, 2008).
